Target: Serine/threonine-protein kinase PLK1 (Homo sapiens, UniProt P53350)
Assay: potency against Plk1 PBD phosphopeptide binding – biochemical, fluorescence polarization, dose response (AID 877)

Serine/threonine-protein kinase PLK1, sequence (P53350 whole entry): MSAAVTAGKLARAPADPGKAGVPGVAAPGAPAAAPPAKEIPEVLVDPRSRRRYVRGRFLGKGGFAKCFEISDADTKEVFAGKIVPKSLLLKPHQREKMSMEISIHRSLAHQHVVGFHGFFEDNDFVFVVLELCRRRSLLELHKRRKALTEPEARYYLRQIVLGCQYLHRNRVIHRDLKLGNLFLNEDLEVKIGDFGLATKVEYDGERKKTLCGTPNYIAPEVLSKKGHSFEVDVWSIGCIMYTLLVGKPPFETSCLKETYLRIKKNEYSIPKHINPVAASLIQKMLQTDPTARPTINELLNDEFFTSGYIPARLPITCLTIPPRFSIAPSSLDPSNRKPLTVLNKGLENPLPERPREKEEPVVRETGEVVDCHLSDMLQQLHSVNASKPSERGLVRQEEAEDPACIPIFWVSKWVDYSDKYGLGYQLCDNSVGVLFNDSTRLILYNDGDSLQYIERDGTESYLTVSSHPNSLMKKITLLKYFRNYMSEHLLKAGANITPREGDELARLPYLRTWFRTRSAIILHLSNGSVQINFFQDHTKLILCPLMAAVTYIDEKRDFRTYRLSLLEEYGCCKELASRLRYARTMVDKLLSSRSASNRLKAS

## Cc1ccc(C(=O)c2c[nH]c(C(=O)NCCCN3CCOCC3)c2)cc1 [4-(4-methylbenzoyl)-N-(3-morpholin-4-ylpropyl)-1H-pyrrole-2-carboxamide]
  IC50: > 50 µM

## CC1Cc2ccccc2N1C(=O)c1ccc2c(c1)nnn2C (stereo unspecified) [(1-methyl-5-benzotriazolyl)-(2-methyl-2,3-dihydroindol-1-yl)methanone]
  IC50: > 50 µM

## CCn1cnc2sc(C(=O)N3CCN(c4ccc(OC)cc4)CC3)c(C)c2c1=O [3-ethyl-6-[4-(4-methoxyphenyl)piperazin-1-yl]carbonyl-5-methyl-thieno[2,3-d]pyrimidin-4-one]
  IC50: > 50 µM

## CCNC(=O)NC(=O)C(C)OC(=O)c1cccnc1SC (stereo unspecified) [2-(methylthio)-3-pyridinecarboxylic acid [1-(ethylcarbamoylamino)-1-oxopropan-2-yl] ester]
  IC50: > 50 µM

## CC(C)=CC(=O)NCCc1ccccc1 [MLS000089152]
  IC50: > 50 µM

## O=C(NCCc1ccccc1)/C(=C\c1ccc([N+](=O)[O-])cc1)NC(=O)c1ccccc1 [MLS000575866]
  IC50: > 50 µM

## CS(=O)(=O)N1CCN(C/C=C/c2ccccc2)CC1 [1-(methylsulfonyl)-4-(3-phenyl-2-propen-1-yl)piperazine]
  IC50: > 50 µM

## CCOCCCNC(=O)CCCOc1ccccc1 [MLS000088375]
  IC50: > 50 µM

## CCC(=O)Nc1ccccc1C(=O)NC1CCCCC1 [MLS000538265]
  IC50: > 50 µM

## Cc1ccccc1Oc1ncnc2oc(-c3ccccc3)cc12 [4-(2-methylphenoxy)-6-phenyl-furo[2,3-d]pyrimidine]
  IC50: > 50 µM

## Cc1nc2cccc(C)n2c(=O)c1Cl [3-chloranyl-2,6-dimethyl-pyrido[1,2-a]pyrimidin-4-one]
  IC50: > 50 µM

## COC(=O)CNC(=O)C12CC3(C)CC(C)(CC(C)(C3)C1)C2 [2-[[oxo-(3,5,7-trimethyl-1-adamantyl)methyl]amino]acetic acid methyl ester]
  IC50: > 50 µM

## NC(=O)C1CCN(C2=C(Cl)C(=O)c3ccccc3C2=O)CC1 [SMR000180199]
  IC50: 33.3 µM

## O=C(CN1C(=O)c2ccccc2C1=O)N1CCN(c2nnc(-c3ccccc3)c3ccccc23)CC1 [2-[2-keto-2-[4-(4-phenylphthalazin-1-yl)piperazino]ethyl]isoindoline-1,3-quinone]
  IC50: > 50 µM

## CC1Cn2c(nnc2-c2cc3ccccc3cc2O)S1 (stereo unspecified) [(3E)-3-(6-methyl-5,6-dihydro-2H-[1,3]thiazolo[2,3-c][1,2,4]triazol-3-ylidene)naphthalen-2-one]
  IC50: > 50 µM

## CC(=O)N(N=C1Sc2ccccc2C1=O)c1cccc(C)c1 [N-(3-methylphenyl)-N-[(3-oxidanylidene-1-benzothiophen-2-ylidene)amino]ethanamide]
  IC50: 32.9 µM

## CCC(C)c1ccc(NC(=O)C2CC2)cc1 (stereo unspecified) [MLS000110184]
  IC50: > 50 µM

## O=NCc1cc(Br)ccc1OCC(=O)O [2-[4-bromanyl-2-(hydroxyiminomethyl)phenoxy]ethanoic acid]
  IC50: > 50 µM

## C=CCSc1nccc(-c2cc(Cl)sc2Cl)n1 [2-(allylsulfanyl)-4-(2,5-dichloro-3-thienyl)pyrimidine]
  IC50: > 50 µM

## O=C1C(=O)c2ccccc2-c2ccccc21
  IC50: 10.1 µM

## O=C1CCN2C=Nc3cccc4ccc1c2c34 [7,8-dihydro-9H-pyrido[1,2,3-cd]perimidin-9-one]
  IC50: 25.1 µM

## CN1C(=O)N(C)C(=O)C2(Sc3ccccc3C2=O)C1=O [1',3'-dimethylspiro[benzothiophene-2,5'-hexahydropyrimidine]-2',3,4',6'-diquinone]
  IC50: > 50 µM

## COC(=O)CCc1c(C)[nH]c(=S)[nH]c1=O [3-(6-methyl-4-oxo-2-sulfanylidene-1H-pyrimidin-5-yl)propanoic acid methyl ester]
  IC50: > 50 µM

## O=C(CN1C(=O)COc2ccccc21)NCc1ccc(C(=O)O)cc1 [4-[[2-(3-oxidanylidene-1,4-benzoxazin-4-yl)ethanoylamino]methyl]benzoic acid]
  IC50: > 50 µM

## Nc1cc2nsnc2cc1Br [(6-bromopiazthiol-5-yl)amine]
  IC50: 40.8 µM

## CCOC(=O)c1c2c(n(C)c1C)C(=O)C(=O)c1ccc(Br)cc1-2 [8-bromo-2,3-dimethyl-4,5-dioxo-1-benzo[e]indolecarboxylic acid ethyl ester]
  IC50: 10.4 µM

## CCCc1nc2sc3c(c2c(=O)n1NC(=O)CCC(=O)O)CCCC3 [4-keto-4-[(4-keto-2-propyl-5,6,7,8-tetrahydrobenzothiopheno[2,3-d]pyrimidin-3-yl)amino]butyric acid]
  IC50: > 50 µM

## Cc1ccc(CNC(=O)c2cc3c(=O)n(C)c4ccccc4c3n2C)cc1 [1,5-dimethyl-N-[(4-methylphenyl)methyl]-4-oxidanylidene-pyrrolo[3,2-c]quinoline-2-carboxamide]
  IC50: > 50 µM

## Cn1c(=O)c(NCCO)c2c3c(cccc31)C(=O)c1ccccc1-2 [1-(2-Hydroxy-ethylamino)-3-methyl-3H-naphtho[1,2,3-de]quinoline-2,7-dione]
  IC50: 1.81 µM

## CC(=O)N(N=C1Sc2ccccc2C1=O)c1ccccc1 [N-[(Z)-(3-ketobenzothiophen-2-ylidene)amino]-N-phenyl-acetamide]
  IC50: > 50 µM

## CCOC(=O)Cc1csc(NC(=O)CSc2nnc(-c3ccc(F)cc3)o2)n1 [(2-{2-[5-(4-Fluoro-phenyl)-[1,3,4]oxadiazol-2-ylsulfanyl]-acetylamino}-thiazol-4-yl)-acetic acid ethyl ester]
  IC50: > 50 µM

## O=C(c1ccc(-n2cnnn2)cc1)N1CCCCC1 [1-piperidinyl-[4-(1-tetrazolyl)phenyl]methanone]
  IC50: > 50 µM

## Cc1ccc(Cl)cc1N1CCN(S(=O)(=O)c2ccc3c(c2)oc(=O)n3C)CC1 [6-[4-(5-chloranyl-2-methyl-phenyl)piperazin-1-yl]sulfonyl-3-methyl-1,3-benzoxazol-2-one]
  IC50: > 50 µM

## COc1cccc(OC)c1C(=O)N1CCN(c2ccccn2)CC1 [(2,6-dimethoxyphenyl)-(4-pyridin-2-ylpiperazin-1-yl)methanone]
  IC50: > 50 µM

## Oc1ccc2ccc3cccc[n+]3c2c1 [9-benzo[c]quinolizin-11-iumol;iodide]
  IC50: 8.73 µM

## CCOC(=O)c1ccc(NC(=O)c2c(O)[nH]c(=O)[nH]c2=O)cc1
  IC50: 2.28 µM

## Cn1cc(SCC(=O)Nc2ccc3c(c2)OCCO3)c2ccccc21 [MLS000529783]
  IC50: > 50 µM

## CC(C)N(Cc1cc2ccccc2[nH]c1=O)C(=O)c1cccnc1 [N-[(2-oxo-1H-quinolin-3-yl)methyl]-N-propan-2-ylpyridine-3-carboxamide]
  IC50: > 50 µM

## O=C(COc1ccccc1)Nc1ccc(S(=O)(=O)N2CCOCC2)cc1 [MLS000108227]
  IC50: > 50 µM

## O=C1CN(c2ccc(Br)cc2)C(=O)N1CC(=O)N1CCCc2ccccc21 [1-(4-bromophenyl)-3-[2-(3,4-dihydro-1(2H)-quinolinyl)-2-oxoethyl]-2,4-imidazolidinedione]
  IC50: > 50 µM

## Cc1ccc(-n2c(O)c(C=NCCN3CCOCC3)c(=O)[nH]c2=O)cc1
  IC50: > 50 µM

## O=c1[nH]cc(COCc2ccccc2)c(=O)[nH]1
  IC50: > 50 µM

## O=C(Nc1cccn(Cc2c(Cl)cccc2Cl)c1=O)c1c(Cl)cccc1Cl [2,6-dichloro-N-[1-(2,6-dichlorobenzyl)-2-keto-3-pyridyl]benzamide]
  IC50: > 50 µM

## COc1ccc(Nc2oc(-c3ccccc3Cl)nc2C#N)cc1 [2-(2-chlorophenyl)-5-(4-methoxyanilino)-1,3-oxazole-4-carbonitrile]
  IC50: > 50 µM

## COC(=O)c1ccccc1NC1=CC(=NS(=O)(=O)c2cccs2)c2ccccc2C1=O [methyl 2-[[(4E)-1-oxidanylidene-4-thiophen-2-ylsulfonylimino-naphthalen-2-yl]amino]benzoate]
  IC50: > 50 µM

## COc1ccc2c(c1OC)C(=O)OC2CC(=O)O (stereo unspecified) [(4,5-dimethoxy-3-oxo-1,3-dihydro-2-benzofuran-1-yl)acetic acid]
  IC50: > 50 µM

## Nc1cc(-c2ccc(Br)cc2)nn1S(=O)(=O)c1cccc2nsnc12 [2-(2,1,3-benzothiadiazol-4-ylsulfonyl)-5-(4-bromophenyl)-3-pyrazolamine]
  IC50: > 50 µM

## Cc1ccc(NC(=O)C2CC=CCC2C(=O)N2CCCCC2)cc1 (stereo unspecified) [6-(Piperidine-1-carbonyl)-cyclohex-3-enecarboxylic acid p-tolylamide]
  IC50: > 50 µM

## O=C1Nc2ccc([N+](=O)[O-])cc2C1(O)N1CCCCC1 (stereo unspecified) [3-hydroxy-5-nitro-3-(1-piperidinyl)-1,3-dihydro-2H-indol-2-one]
  IC50: > 50 µM

## O=C(NC1(O)C(=O)c2ccccc2C1=O)c1ccccc1 [N-(2-hydroxy-1,3-dioxo-2-indenyl)benzamide]
  IC50: > 50 µM

## O=C(CC1C(=O)NCCN1C(=S)Nc1ccccc1)Nc1ccc2c(c1)OCCO2 (stereo unspecified) [2-[1-(anilinocarbonothioyl)-3-oxo-2-piperazinyl]-N-(2,3-dihydro-1,4-benzodioxin-6-yl)acetamide]
  IC50: > 50 µM

## CC(C)OCCCNC(=O)c1ccc(NC(=O)C2CCCO2)cc1 (stereo unspecified) [MLS000086701]
  IC50: > 50 µM

## NC(=O)C1(N2CCCCC2)CCN(C(=O)NC2CCCCC2)CC1 [1-N-cyclohexyl-4-piperidin-1-ylpiperidine-1,4-dicarboxamide]
  IC50: > 50 µM

## CCCSc1nc(N2CCOCC2)c2c(c1C#N)CCCC2 [1-(4-morpholinyl)-3-(propylthio)-5,6,7,8-tetrahydroisoquinoline-4-carbonitrile]
  IC50: > 50 µM

## Fc1ccc(Cn2nnnc2CN2CCN(C3CCCC3)CC2)cc1 [1-Cyclopentyl-4-[1-(4-fluoro-benzyl)-1H-tetrazol-5-ylmethyl]-piperazine]
  IC50: > 50 µM

## COc1ccc(C(C)C)cc1S(=O)(=O)Nc1ccc(Cl)cn1 [MLS000071127]
  IC50: > 50 µM

## O=C1CCC(C(=O)O)(c2ccccc2)C1 (stereo unspecified) [3-Oxo-1-phenyl-cyclopentanecarboxylic acid]
  IC50: > 50 µM

## NC(=O)Cn1c(S(=O)(=O)Cc2ccccc2)nc2ccccc21 [2-(2-benzylsulfonylbenzimidazol-1-yl)acetamide]
  IC50: > 50 µM

## C/C(=C\C(=O)Nc1cc(C)on1)c1ccccc1 [(E)-N-(5-methyl-1,2-oxazol-3-yl)-3-phenyl-but-2-enamide]
  IC50: > 50 µM

## CC1CN(C2CC(C)(C)NC(C)(C)C2)CCC1=O (stereo unspecified) [3-methyl-1-(2,2,6,6-tetramethyl-4-piperidinyl)-4-piperidinone]
  IC50: > 50 µM

## Cc1cccc(-n2c(CCn3nc(C)c([N+](=O)[O-])c3C)n[nH]c2=S)c1 [3-(2-{4-nitro-3,5-dimethyl-1H-pyrazol-1-yl}ethyl)-4-(3-methylphenyl)-5-sulfanyl-4H-1,2,4-triazole]
  IC50: > 50 µM
